In the supplement of paper PMC10307832 one finds relative viability data, which are given here for eleven cell lines.

Assay in all cases: relative viability (nuclei count vs DMSO), 5 days (fraction); higher = more cells survive
Compound in one test: CC(C)C[C@H](NC(=O)[C@H](CCc1ccccc1)NC(=O)CN1CCOCC1)C(=O)N[C@@H](Cc1ccccc1)C(=O)N[C@@H](CC(C)C)C(=O)[C@@]1(C)CO1 [Carfilzomib]
A digest of the protocol: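 Vehicle-anchored 1536-well plates of lung cancer cell lines, held overnight at 37 °C, were pinned with five library-drug doses (not always all listed) spaced by √10. No medium change followed over the next 5 days, after which the cells were fixed, permeabilised and Hoechst-stained together and imaged at 4×. Nuclei were counted with MetaXpress, and viability is treated-well nuclei over vehicle-well nuclei, taken as a median across plates. Plates passed with control CV below 25% and at least one doubling.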

Compound in the test “Carfilzomib + Foretinib”: CC(C)C[C@H](NC(=O)[C@H](CCc1ccccc1)NC(=O)CN1CCOCC1)C(=O)N[C@@H](Cc1ccccc1)C(=O)N[C@@H](CC(C)C)C(=O)[C@@]1(C)CO1 [Carfilzomib] + COc1cc2c(Oc3ccc(NC(=O)C4(C(=O)Nc5ccc(F)cc5)CC4)cc3F)ccnc2cc1OCCCN1CCOCC1 [Foretinib] (partner 0.25 µM)
In a few lines: (§1)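 Medians of duplicate plates are given as relative viability. That measure is the nuclei count in treated wells divided by the count in vehicle wells. Counts were taken on 4× images of lung cancer cell lines in 1536-well plates, 5 days after pin-tool dosing the day after seeding with one drug alone or a fixed anchor-drug dose plus five library-drug doses (not always all listed) in √10 steps.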

Compound in the test “Crizotinib + OSI-027”: C[C@@H](Oc1cc(-c2cnn(C3CCNCC3)c2)cnc1N)c1c(Cl)ccc(F)c1Cl [Crizotinib] + COc1cccc2cc(-c3nc([C@H]4CC[C@H](C(=O)O)CC4)n4ncnc(N)c34)[nH]c12 [OSI-027] (partner 0.5 µM)
In a few lines: as §1

For LOU-NH91, the relative viability with Carfilzomib (0.001 µM) amounted to 0.962; in the test with Carfilzomib (0.003162 µM) it was 1.08; with Carfilzomib (0.01 µM), 0.745; with Carfilzomib (0.03162 µM), 0.314; with Carfilzomib (0.1 µM) it was 0.309; with Carfilzomib + Foretinib (first compound 0.001 µM) it was 0.934. The relative viability with Carfilzomib + Foretinib (first compound 0.003162 µM) was found to be 1.04; with Carfilzomib + Foretinib (first compound 0.01 µM), 0.875; in the test with Carfilzomib + Foretinib (first compound 0.03162 µM), 0.303; with Carfilzomib + Foretinib (first compound 0.1 µM), 0.224; in the test with Crizotinib + OSI-027 (first compound 0.01 µM), 0.713; with Crizotinib + OSI-027 (first compound 0.03162 µM) it was 0.724. In addition, the figures for the relative viability with Crizotinib + OSI-027 (first compound 0.1 µM), with Crizotinib + OSI-027 (first compound 0.3162 µM) and with Crizotinib + OSI-027 (first compound 1 µM) were 0.798, 0.712 and 0.706, respectively.

Take NCI-H1755: the relative viability in the test with Carfilzomib (0.001 µM) came to 1.01; with Carfilzomib (0.003162 µM), 1.02; in the test with Carfilzomib (0.01 µM), 1; in the test with Carfilzomib (0.03162 µM), 1.01; in the test with Carfilzomib (0.1 µM) it was 0.788; with Carfilzomib + Foretinib (first compound 0.001 µM), 0.954. Further, the relative viability with Carfilzomib + Foretinib (first compound 0.003162 µM) came out at 0.939; with Carfilzomib + Foretinib (first compound 0.01 µM) it was 0.954; in the test with Carfilzomib + Foretinib (first compound 0.03162 µM) it was 0.928; in the test with Carfilzomib + Foretinib (first compound 0.1 µM), 0.479; with Crizotinib + OSI-027 (first compound 0.01 µM) it was 0.678; with Crizotinib + OSI-027 (first compound 0.03162 µM) it was 0.716. For the same cell line, the relative viability worked out at 0.625 with Crizotinib + OSI-027 (first compound 0.1 µM), 0.531 with Crizotinib + OSI-027 (first compound 0.3162 µM) and 0.644 with Crizotinib + OSI-027 (first compound 1 µM).

Regarding NCI-H647, the relative viability with Carfilzomib (0.001 µM) stood at 0.873; in the test with Carfilzomib (0.003162 µM), 1.06; with Carfilzomib (0.01 µM) it was 0.978; in the test with Carfilzomib (0.03162 µM) it was 0.0791; with Carfilzomib (0.1 µM), 0.038; with Carfilzomib + Foretinib (first compound 0.001 µM) it was 1.19. The relative viability with Carfilzomib + Foretinib (first compound 0.003162 µM) came to 1.33; with Carfilzomib + Foretinib (first compound 0.01 µM), 1.26; with Carfilzomib + Foretinib (first compound 0.03162 µM), 0.0352; in the test with Carfilzomib + Foretinib (first compound 0.1 µM), 0.0362; in the test with Crizotinib + OSI-027 (first compound 0.01 µM), 0.736; with Crizotinib + OSI-027 (first compound 0.03162 µM) it was 0.516. The relative viability with Crizotinib + OSI-027 (first compound 0.1 µM) was found to be 0.641; in the test with Crizotinib + OSI-027 (first compound 0.3162 µM) it was 0.531; with Crizotinib + OSI-027 (first compound 1 µM) it was 0.663.

Take A549: the relative viability with Carfilzomib (0.001 µM) was 0.967; with Carfilzomib (0.003162 µM) it was 1.03; with Carfilzomib (0.01 µM) it was 0.954; with Carfilzomib (0.03162 µM) it was 0.525; in the test with Carfilzomib (0.1 µM), 0.043; with Carfilzomib + Foretinib (first compound 0.001 µM), 0.86. Also, the relative viability stood at 0.966 with Carfilzomib + Foretinib (first compound 0.003162 µM), 0.946 with Carfilzomib + Foretinib (first compound 0.01 µM), 0.0732 with Carfilzomib + Foretinib (first compound 0.03162 µM) and 0.0218 with Carfilzomib + Foretinib (first compound 0.1 µM).

With LCLC-103H, the relative viability in the test with Carfilzomib (0.001 µM) was 0.923; with Carfilzomib (0.003162 µM) it was 0.974; in the test with Carfilzomib (0.01 µM), 0.998; with Carfilzomib (0.03162 µM), 0.984; with Carfilzomib (0.1 µM) it was 0.459; in the test with Carfilzomib + Foretinib (first compound 0.001 µM), 0.772. Also, the relative viability with Carfilzomib + Foretinib (first compound 0.003162 µM) stood at 0.714; in the test with Carfilzomib + Foretinib (first compound 0.01 µM) it was 0.814; with Carfilzomib + Foretinib (first compound 0.03162 µM), 0.646; in the test with Carfilzomib + Foretinib (first compound 0.1 µM) it was 0.225; with Crizotinib + OSI-027 (first compound 0.01 µM) it was 0.483; with Crizotinib + OSI-027 (first compound 0.03162 µM) it was 0.485. In addition, the relative viability with Crizotinib + OSI-027 (first compound 0.1 µM) turned out to be 0.361; in the test with Crizotinib + OSI-027 (first compound 0.3162 µM) it was 0.495; with Crizotinib + OSI-027 (first compound 1 µM), 0.428.

Regarding NCI-H1437, the relative viability with Carfilzomib (0.001 µM) was 0.952; in the test with Carfilzomib (0.003162 µM), 1.07; with Carfilzomib (0.01 µM) it was 1.04; with Carfilzomib (0.03162 µM) it was 0.884; with Carfilzomib (0.1 µM), 0.358; with Carfilzomib + Foretinib (first compound 0.001 µM) it was 1.29. Further, the relative viability came out at 1.4 in the test with Carfilzomib + Foretinib (first compound 0.003162 µM); 1.29 in the test with Carfilzomib + Foretinib (first compound 0.01 µM); 1.19 in the test with Carfilzomib + Foretinib (first compound 0.03162 µM); 0.284 with Carfilzomib + Foretinib (first compound 0.1 µM); 0.758 in the test with Crizotinib + OSI-027 (first compound 0.01 µM); 0.901 with Crizotinib + OSI-027 (first compound 0.03162 µM). The relative viability with Crizotinib + OSI-027 (first compound 0.1 µM) worked out at 0.824.

For NCI-H2170, the relative viability in the test with Carfilzomib (0.001 µM) was determined as 0.931; in the test with Carfilzomib (0.003162 µM), 0.99; with Carfilzomib (0.01 µM), 1.07; in the test with Carfilzomib (0.03162 µM), 0.969; in the test with Carfilzomib (0.1 µM) it was 0.443; with Carfilzomib + Foretinib (first compound 0.001 µM), 1.05. Moreover, the relative viability is 1.02 with Carfilzomib + Foretinib (first compound 0.003162 µM); 1.06 with Carfilzomib + Foretinib (first compound 0.01 µM); 1.06 in the test with Carfilzomib + Foretinib (first compound 0.03162 µM); 0.397 in the test with Carfilzomib + Foretinib (first compound 0.1 µM); 0.775 with Crizotinib + OSI-027 (first compound 0.01 µM); 0.839 with Crizotinib + OSI-027 (first compound 0.03162 µM). The figures for the relative viability with Crizotinib + OSI-027 (first compound 0.1 µM), in the test with Crizotinib + OSI-027 (first compound 0.3162 µM) and with Crizotinib + OSI-027 (first compound 1 µM) were 0.741, 0.573 and 0.691, respectively.

As to HCC-15, the relative viability stood at 0.954 with Carfilzomib (0.001 µM); 1.07 with Carfilzomib (0.003162 µM); 1.07 with Carfilzomib (0.01 µM); 0.709 in the test with Carfilzomib (0.03162 µM); 0.177 with Carfilzomib (0.1 µM); 0.96 in the test with Carfilzomib + Foretinib (first compound 0.001 µM). Further, the relative viability with Carfilzomib + Foretinib (first compound 0.003162 µM) is 1.19; with Carfilzomib + Foretinib (first compound 0.01 µM) it was 1.12; with Carfilzomib + Foretinib (first compound 0.03162 µM), 0.589; in the test with Carfilzomib + Foretinib (first compound 0.1 µM) it was 0.149; with Crizotinib + OSI-027 (first compound 0.01 µM) it was 0.626; with Crizotinib + OSI-027 (first compound 0.03162 µM), 0.754. For the same cell line, the relative viability worked out at 0.633 in the test with Crizotinib + OSI-027 (first compound 0.1 µM) and 0.568 with Crizotinib + OSI-027 (first compound 1 µM).

With NCI-H1648, the relative viability with Carfilzomib (0.001 µM) is 0.845; with Carfilzomib (0.003162 µM) it was 1.11; in the test with Carfilzomib (0.01 µM), 1.14; with Carfilzomib (0.03162 µM), 0.725; with Carfilzomib (0.1 µM), 0.416; with Crizotinib + OSI-027 (first compound 0.01 µM), 0.274. The relative viability came out at 0.265 in the test with Crizotinib + OSI-027 (first compound 0.03162 µM), 0.224 in the test with Crizotinib + OSI-027 (first compound 0.3162 µM) and 0.257 with Crizotinib + OSI-027 (first compound 1 µM).

Regarding NCI-H661, the relative viability with Carfilzomib (0.001 µM) came to 0.986; with Carfilzomib (0.003162 µM), 1.05; in the test with Carfilzomib (0.01 µM) it was 1.02; with Carfilzomib (0.03162 µM) it was 0.995; with Carfilzomib (0.1 µM) it was 0.535; with Carfilzomib + Foretinib (first compound 0.001 µM), 1.05. Further, the relative viability with Carfilzomib + Foretinib (first compound 0.003162 µM) is 1.16; with Carfilzomib + Foretinib (first compound 0.01 µM), 1.07; with Carfilzomib + Foretinib (first compound 0.03162 µM) it was 1.06; with Carfilzomib + Foretinib (first compound 0.1 µM), 0.377; with Crizotinib + OSI-027 (first compound 0.01 µM) it was 0.606; with Crizotinib + OSI-027 (first compound 0.03162 µM), 0.74. In addition, the relative viability came out at 0.771 with Crizotinib + OSI-027 (first compound 0.1 µM), 0.711 in the test with Crizotinib + OSI-027 (first compound 0.3162 µM) and 0.663 with Crizotinib + OSI-027 (first compound 1 µM).

Turning to NCI-H650, the relative viability in the test with Carfilzomib (0.001 µM) was determined as 0.811; in the test with Carfilzomib (0.003162 µM) it was 1.03; with Carfilzomib (0.01 µM) it was 0.886; with Carfilzomib (0.03162 µM), 0.751; with Carfilzomib (0.1 µM), 0.196; with Carfilzomib + Foretinib (first compound 0.003162 µM), 1.27. Also, the relative viability with Carfilzomib + Foretinib (first compound 0.01 µM) was found to be 1.03; in the test with Carfilzomib + Foretinib (first compound 0.03162 µM), 0.71; with Carfilzomib + Foretinib (first compound 0.1 µM), 0.174; with Crizotinib + OSI-027 (first compound 0.01 µM) it was 0.587; with Crizotinib + OSI-027 (first compound 0.03162 µM), 0.508; with Crizotinib + OSI-027 (first compound 0.1 µM), 0.544. The relative viability with Crizotinib + OSI-027 (first compound 0.3162 µM) amounted to 0.423; with Crizotinib + OSI-027 (first compound 1 µM), 0.59.
